In publication PMC9880438, “Pharmacokinetics of active compounds of a Terminalia chebula Retz. Ethanolic extract after oral administration rats using UPLC-MS/MS” (Frontiers in Pharmacology, 2023):
Like-named read-outs stand apart in the source and are kept apart here.

Assays:
[1] = Stability of QC samples of the analytes in rat plasma under storage conditions; format: physicochemical; conditions: n = 6
Description: Preparation of quality control (QC) samples with three concentrations (low, medium, and high) of 16, 160, and 3,200 ng/ml for ellagic acid; 1.6, 16, 320 ng/ml for protocatechuic acid, ethyl gallate and 1,2,3,4,6-O-pentagalloylglucose; 40, 400 and 8,000 ng/ml for chebulic acid, gallic acid, corilagin and chebulinic acid and 160, 1,600, 32000 ng/ml for chebulagic acid. Both QC samples and stock solutions were stored in a refrigerator at 4°C.
Under variable treatment conditions: stored for 12 h at auto-sampler, for 4 hours at room temperature, under three freeze-thaw cycles, and kept at −80°C for 7 days, quality control samples were analyzed to assess the stability of the nine analytes in plasma.

[2] = rat, in vivo, po
Description: (§1) UPLC-MS/MS system was used for analysis and monitoring, which consisted primarily of an Agilent 1290 UPLC system (Agilent Technologies, Germany) and an Agilent 6,470 series triple quad (TQ) mass spectrometer (MS) (Agilent Technologies, Singapore) equipped with an electrospray ionization source.
(§2) Separation was carried out on an ACQUITY UPLC® HSS T3 column (2.1 × 100 mm, 1.8 μm), and temperature in the column was kept at 20°C. In the mobile phase, 0.1% formic acid in water and acetonitrile were used as solvents A and B, respectively. Gradient elution was performed as follows: 1%–5% B at 0–3 min; 5%–30% B at 3–4 min; 30%–40% B at 4–8 min; 40%–100% B at 8–9 min; 100%–100% B at 9–12 min. The flow rate was set at 0.3 ml/min and the injection volume was 10 μL.
(§3) Multiple reaction monitoring (MRM) was used for quantitative analysis in negative (−) ionization mode. The mass spectrometric parameters were set as follows: drying gas (N2) temperature was 300°C; gas (N2) flow rate was 7 L/min; atomizer pressure was 35 psi; sheath gas flow was 11 L/min and capillary voltage was 3800 V. The specific mass spectrometric parameters of the precursor ion, product ion, fragmentor, collision energy, and ion modes of the nine compounds and IS are shown in Table 1.
(§4) The plasma sample (100 μl) was sequentially spiked with 20 μl IS solutions (caffeic acid, 1,000 ng/ml); 20 μL methanol, and 10 μl formic acid, then vortex-mixed for 1 min. The mixture was precipitated protein with 1,000 μl methanol by vortex mixing for 3 min. The supernatant was collected into a 1.5 ml clean centrifuge tube after centrifugation at for 10 min 14,000 rpm, and evaporated under a nitrogen stream until dry. After that, the residue was redissolved in 100 μl methanol, vortex-mixed for 3 min, then centrifuged for 10 min at 14,000 rpm. 10 μl analyte was injected into the UPLC-MS/MS system.
(§5) In this study, six of male rats were used, given free access to water, and fasted for 12 h before the experimental period. The TC extracts were dissolved in 0.5% CMC-Na aqueous solution as a suspension at a concentration of 1 g/ml. A dose of 10 g/kg of the suspension was administered to the rats orally, the blood samples of approximately 300 μL were drawn from the fundus venous plexus of rats pre- and post-oral administration at 0.00, 0.08, 0.17, 0.25, 0.50, 0.75, 1, 2, 4, 6, 8, 10, 12, 24, 36, 48, 60, 72, 84, 96, 120, 144 and 168 h, respectively. For analysis, the plasma supernatants collected from the centrifuged plasma were frozen at −80°C after centrifugation for 10 min at 6,000 rpm.
(§6) Data were expressed as mean ± standard deviation (mean ± SD). MassHunter Workstation software (version B.09.00) was quantitatively used to calculate the plasma concentrations of nine analytes. To evaluate the specific pharmacokinetic parameters, DAS Software (DAS 3.0, Medical College of Wannan, China) was used to process the pharmacokinetic results.

[3] = design: method as in Mishra et al., 2013; conditions: dose of 40 mg/kg; ref Mishra et al., 2013; cited from earlier work
[4] = Pharmacokinetic study in rats after oral administration of TC extracts (UPLC-MS/MS of plasma); conditions: for AUC / AUC(0-inf) / Cmax / MRT / MRT inf / Tmax / half-life: male, Sprague-Dawley, rat, plasma, po, 10 g/kg
Description: as §1, §2, §3, §4, §5, §6

in vivo = conditions: male, Sprague-Dawley, rat, po, 10 g/kg
Description: as §1, §2, §3, §4, §5, §6

[5] = spiked 40 ng/mL, autosampler for 12 h
[6] = spiked 40 ng/mL, room temperature for 4 h
[7] = spiked 40 ng/mL, three freeze-thaw cycles
[8] = spiked 40 ng/mL, −80°C for 7 days
[9] = spiked 400 ng/mL, autosampler for 12 h
[10] = spiked 400 ng/mL, room temperature for 4 h
[11] = spiked 400 ng/mL, three freeze-thaw cycles
[12] = spiked 400 ng/mL, −80°C for 7 days
[13] = spiked 8,000 ng/mL, autosampler for 12 h
[14] = spiked 8,000 ng/mL, room temperature for 4 h
[15] = spiked 8,000 ng/mL, three freeze-thaw cycles
[16] = spiked 8,000 ng/mL, −80°C for 7 days
[17] = spiked 16 ng/mL, autosampler for 12 h
[18] = spiked 16 ng/mL, room temperature for 4 h
[19] = spiked 16 ng/mL, three freeze-thaw cycles
[20] = spiked 16 ng/mL, −80°C for 7 days
[21] = spiked 1.6 ng/mL, autosampler for 12 h
[22] = spiked 1.6 ng/mL, room temperature for 4 h
[23] = spiked 1.6 ng/mL, three freeze-thaw cycles
[24] = spiked 1.6 ng/mL, −80°C for 7 days
[25] = spiked 320 ng/mL, autosampler for 12 h
[26] = spiked 320 ng/mL, room temperature for 4 h
[27] = spiked 320 ng/mL, three freeze-thaw cycles
[28] = spiked 320 ng/mL, −80°C for 7 days

Row | SMILES | Measured concentration after storage [1, 5] [ng/mL] | Measured concentration after storage [1, 6] [ng/mL] | Measured concentration after storage [1, 7] [ng/mL] | Measured concentration after storage [1, 8] [ng/mL] | Measured concentration after storage [1, 9] [ng/mL] | Measured concentration after storage [1, 10] [ng/mL] | Measured concentration after storage [1, 11] [ng/mL] | Measured concentration after storage [1, 12] [ng/mL] | Measured concentration after storage [1, 13] | Measured concentration after storage [1, 14] | Measured concentration after storage [1, 15] | Measured concentration after storage [1, 16] | AUC [4] [ng·h/mL] | AUC(0-inf) [4] [ng·h/mL] | Cmax [4] [ng/mL] | MRT [4] [h] | MRT inf [4] [h] | Tmax [4] [h] | half-life [4] [h] | Measured concentration after storage [1, 17] [ng/mL] | also measured
1 | O=C(O)C[C@H](C(=O)O)[C@H]1c2c(cc(O)c(O)c2O)C(=O)O[C@@H]1C(=O)O [Chebulic acid, chebulic acid] | 35.6 ± 3.9 | 39.9 ± 1.9 | 40.1 ± 3.3 | 37.5 ± 2.1 | 393.3 ± 52.6 | 395.7 ± 29.7 | 398.4 ± 12.2 | 364.4 ± 17.5 | 8,230.9 ± 726.4 ng/mL | 7,996.4 ± 517.7 ng/mL | 7,691 ± 316.7 ng/mL | 6,878.6 ± 535.3 ng/mL | – | – | – | – | – | – | – | – | T1/2 [2]: 1.51 h; AUC (0-tn) ([2]; 10 g/kg): 29045.30 ± 4,395.44 h·ng/mL; AUC (0-∞) ([2]; 10 g/kg): 34069.03 ± 6,641.84 h·ng/mL; Cmax ([2]; 10 g/kg): 1927.06 ± 572.23 ng/mL; MRT (0-tn) ([2]; 10 g/kg): 33.56 ± 3.77 h; MRT (0-∞) ([2]; 10 g/kg): 77.92 ± 22.14 h; T1/2 ([2]; 10 g/kg): 6.60 ± 4.36 h; Tmax ([2]; 10 g/kg): 1.67 ± 0.52 h
2 | O=C(O)C[C@@H]1C(=O)O[C@H]2[C@H](OC(=O)c3cc(O)c(O)c(O)c3)[C@@H](OC(=O)c3cc(O)c(O)c4c3[C@H]1[C@H](O)C(=O)O4)[C@H](OC(=O)c1cc(O)c(O)c(O)c1)O[C@@H]2COC(=O)c1cc(O)c(O)c(O)c1 [Chebulinic acid, chebulinic acid] | 42.2 ± 5.1 | 36.8 ± 3.9 | 41.8 ± 2.3 | 47.1 ± 1.6 | 359.7 ± 18.1 | 414.3 ± 21.9 | 378.1 ± 29.2 | 373.5 ± 23.6 | 7,174.2 ± 321.2 ng/mL | 8,592.3 ± 543.8 ng/mL | 8,447.4 ± 574.6 ng/mL | 8,787.4 ± 801 ng/mL | 38200 ± 16300 | 41900 ± 15800 | 853 ± 433 | 58.2 ± 5.63 | 76 ± 15.3 | 1.83 ± 0.41 | 43.3 ± 13.2 | – | Anti-gastric ulcer effect [3]: good anti-gastric ulcer effect
3 | O=C(O[C@@H]1O[C@@H]2COC(=O)c3cc(O)c(O)c(O)c3-c3c(cc(O)c(O)c3O)C(=O)O[C@H]([C@H]1O)[C@@H]2O)c1cc(O)c(O)c(O)c1 [Corilagin, corilagin] | 38.8 ± 1.2 | 39.6 ± 3.0 | 42.8 ± 2.4 | 39.7 ± 2.1 | 435.7 ± 34.5 | 398.2 ± 34.3 | 405.3 ± 6.0 | 395.6 ± 7.2 | 7,335.4 ± 704.5 ng/mL | 8,930.5 ± 535.3 ng/mL | 8,802.7 ± 713.0 ng/mL | 8,304.6 ± 362.4 ng/mL | 16700 ± 12400 | 17400 ± 12500 | 591 ± 203 | 53.5 ± 4.12 | 99.4 ± 46.2 | 1.67 ± 0.52 | 26.4 ± 22.2 | – | –
4 | O=c1oc2c(O)c(O)cc3c(=O)oc4c(O)c(O)cc1c4c23 [Ellagic acid, ellagic acid] | – | – | – | – | – | – | – | – | – | – | – | – | 6810 | 7340 | 390 ± 80.5 | 45.9 ± 8.13 | 56.5 ± 13 | 0.97 ± 0.84 | 8.23 ± 8.95 | 17.6 ± 1.6 | Measured concentration after storage [1, 18]: 17.5 ± 1.7 ng/mL; Measured concentration after storage [1, 19]: 16.9 ± 1.4 ng/mL; Measured concentration after storage [1, 20]: 16.8 ± 1.0 ng/mL; Measured concentration after storage ([1]; spiked 160 ng/mL, autosampler for 12 h): 154.8 ± 13.9 ng/mL; Measured concentration after storage ([1]; spiked 160 ng/mL, room temperature for 4 h): 156.3 ± 17.8 ng/mL; Measured concentration after storage ([1]; spiked 160 ng/mL, three freeze-thaw cycles): 171.8 ± 10.5 ng/mL; Measured concentration after storage ([1]; spiked 160 ng/mL, −80°C for 7 days): 163.8 ± 4.3 ng/mL; Measured concentration after storage ([1]; spiked 3,200 ng/mL, autosampler for 12 h): 3,450.0 ± 313.1 ng/mL; Measured concentration after storage ([1]; spiked 3,200 ng/mL, room temperature for 4 h): 3,437.2 ± 188 ng/mL; Measured concentration after storage ([1]; spiked 3,200 ng/mL, three freeze-thaw cycles): 3,438.7 ± 285.7 ng/mL; Measured concentration after storage ([1]; spiked 3,200 ng/mL, −80°C for 7 days): 3,594.0 ± 81.5 ng/mL; Shape of plasma concentration-time curve ([4]; rat plasma, oral TC extracts, Figure 2): double peaks phenomenon
5 | CCOC(=O)c1cc(O)c(O)c(O)c1 [Ethyl gallate, ethyl gallate] | – | – | – | – | – | – | – | – | – | – | – | – | 16.9 ± 8.28 | 16.9 ± 8.2 | 12.5 ± 4.38 | 1.55 ± 0.42 | 1.6 ± 0.4 | 0.63 ± 0.26 | 2.08 ± 2.16 | 16.3 ± 2.6 | Measured concentration after storage [1, 21]: 1.7 ± 0.2 ng/mL; Measured concentration after storage [1, 22]: 1.4 ± 0.1 ng/mL; Measured concentration after storage [1, 23]: 1.6 ± 0.1 ng/mL; Measured concentration after storage [1, 24]: 1.6 ± 0.1 ng/mL; Measured concentration after storage [1, 18]: 14.6 ± 1.9 ng/mL; Measured concentration after storage [1, 19]: 13.6 ± 1.2 ng/mL; Measured concentration after storage [1, 20]: 14.2 ± 0.4 ng/mL; Measured concentration after storage [1, 25]: 323.3 ± 13.8 ng/mL; Measured concentration after storage [1, 26]: 345.6 ± 14.7 ng/mL; Measured concentration after storage [1, 27]: 328.6 ± 17.1 ng/mL; Measured concentration after storage [1, 28]: 307.4 ± 29.5 ng/mL
6 | O=C(O)c1cc(O)c(O)c(O)c1 [Gallic acid, gallic acid] | 34.9 ± 5.1 | 35.5 ± 1.0 | 41.0 ± 2.8 | 41.2 ± 0.8 | 431.7 ± 27.3 | 385 ± 36.1 | 393.9 ± 35.3 | 358.6 ± 21.8 | 8,051.6 ± 602.3 ng/mL | 8,051.2 ± 472.7 ng/mL | 8,222.3 ± 456.3 ng/mL | 8,304.7 ± 418.5 ng/mL | – | – | – | – | – | – | – | – | AUC (in vivo): 16000 ng·h/mL; AUC(0-inf) (in vivo): 16000 ng·h/mL; Cmax (in vivo): 2230 ng/mL; MRT (in vivo): 6.58 ± 1.07 h; MRT inf (in vivo): 6.58 ± 1.07 h; Tmax (in vivo): 1.17 ± 0.41 h; half-life (in vivo): 1.51 ± 0.43 h; T1/2 ([2]; male, Sprague-Dawley): 2.06 h
7 | O=C(O)c1ccc(O)c(O)c1 [Protocatechuic acid, protocatechuic acid] | – | – | – | – | – | – | – | – | – | – | – | – | 70.8 ± 16.6 | 70.8 ± 16.6 | 24.7 ± 3.27 | 3.39 ± 0.83 | 3.39 ± 0.83 | 0.54 ± 0.1 | 2.06 ± 0.76 | 14.5 ± 2.0 | Measured concentration after storage [1, 21]: 1.7 ± 0.2 ng/mL; Measured concentration after storage [1, 22]: 1.6 ± 0.1 ng/mL; Measured concentration after storage [1, 23]: 1.8 ± 0.1 ng/mL; Measured concentration after storage [1, 24]: 1.5 ± 0.2 ng/mL; Measured concentration after storage [1, 18]: 16.4 ± 0.6 ng/mL; Measured concentration after storage [1, 19]: 13.9 ± 0.7 ng/mL; Measured concentration after storage [1, 20]: 13.1 ± 1.2 ng/mL; Measured concentration after storage [1, 25]: 305.9 ± 15.9 ng/mL; Measured concentration after storage [1, 26]: 297.9 ± 8.4 ng/mL; Measured concentration after storage [1, 27]: 330.3 ± 18.5 ng/mL; Measured concentration after storage [1, 28]: 334.2 ± 8.0 ng/mL
